From US10155768B2, “Fused pyrimidine compound or salt thereof” (TAIHO PHARMACEUTICAL CO., LTD., priority 2016, dated 2018) come the findings set out here.

This data set can be described thus: Evaluation of stability in liver microsome. Particulars: mouse liver microsome 0.25 mg/mL, 1 μM test compound, 37° C. for 30 minutes.
As for `COCc1ccc(NC(=O)c2c(OCC3CCCC3)n(C3(C)CC3)c3ncnc(N)c23)cc1` [Example 140, 4-amino-6-(cyclopentylmethoxy)-N-(4-(methoxymethyl)phenyl)-7-(1-methylcyclopropyl)-7H-pyrrolo[2,3-d]pyrimidine-5-carboxamide], the “Remaining (%)” value worked out at 52%.
With `COCc1ccc(NC(=O)c2c(OCC(C)(C)OC)n(C3(C)CC3)c3ncnc(N)c23)cc1` [Example 137, 4-amino-6-(2-methoxy-2-methylpropoxy)-N-(4-(methoxymethyl)phenyl)-7-(1-methylcyclopropyl)-7H-pyrrolo[2,3-d]pyrimidine-5-carboxamide] the figure was 53%; with `COCc1ccc(NC(=O)c2c(C#Cc3ccsc3)n(C3(C)CC3)c3ncnc(N)c23)cc1` [Example 176, 4-amino-N-(4-(methoxymethyl)phenyl)-7-(1-methylcyclopropyl)-6-(thiophen-3-ylethynyl)-7H-pyrrolo[2,3-d]pyrimidine-5-carboxamide], 70%; with `COCc1ccc(NC(=O)c2c(C#Cc3ccccc3OC)n(C3(C)CC3)c3ncnc(N)c23)cc1` [Example 113, 4-amino-N-(4-(methoxymethyl)phenyl)-6-((2-methoxyphenyl)ethynyl)-7-(1-methylcyclopropyl)-7H-pyrrolo[2,3-d]pyrimidine-5-carboxamide], 79%.
For `COCc1ccc(NC(=O)c2c(OCC3CCOC3)n(C3(C)CC3)c3ncnc(N)c23)cc1` (centres unmarked) [Example 101, 4-amino-N-(4-(methoxymethyl)phenyl)-7-(1methylcyclopropyl)-6-((tetrahydrofuran-3-yl)methoxy)-7H-pyrrolo[2,3-d]pyrimidine-5-carboxamide] the value was 68%; for `COCc1ccc(NC(=O)c2c(/C=C/CO)n(C3(C)CC3)c3ncnc(N)c23)cc1` [Example 109, (E)-4-amino-6-(3-hydroxyprop-1-en-1-yl)-N-(4-(methoxymethyl)phenyl)-7-(1-methylcyclopropyl)-7H-pyrrolo[2,3-d]pyrimidine-5-carboxamide], 68%; for `C=C(C)c1c(C(=O)Nc2ccc(COC)cc2)c2c(N)ncnc2n1C1(C)CC1` [Example 149, 4-amino-N-(4-(methoxymethyl)phenyl)-7-(1-methylcyclopropyl)-6-(prop-1-en-2-yl)-7H-pyrrolo[2,3-d]pyrimidine-5-carboxamide], 62%.
As to `COCc1ccc(NC(=O)c2c(-c3cnn(C)c3)n(C3(C)CC3)c3ncnc(N)c23)cc1` [Example 150, 4-amino-N-(4-(methoxymethyl)phenyl)-6-(1-methyl-1H-pyrazol-4-yl)-7-(1-methylcyclopropyl)-7H-pyrrolo[2,3-d]pyrimidine-5-carboxamide], the “Remaining (%)” value worked out at 78%.
For `COCc1ccc(NC(=O)c2c(C#Cc3ccn[nH]3)n(C3(C)CC3)c3ncnc(N)c23)cc1` [Example 129, 6-((1H-pyrazol-5-yl)ethynyl)-4-amino-N-(4-(methoxymethyl)phenyl)-7-(1-methylcyclopropyl)-7H-pyrrolo[2,3-d]pyrimidine-5-carboxamide] the value was 54%.
With `CC(C)(C)n1cc(C(=O)Nc2ccc(-c3cc[nH]n3)cc2)c2c(N)ncnc21` [Example 80, N-(4-(1H-pyrazol-3-yl)phenyl)-4-amino-7-(tert-butyl)-7H-pyrrolo[2,3-d]pyrimidine-5-carboxamide], the “Remaining (%)” value came out at 50%.
With `CCc1c(C(=O)Nc2ccc(COC)cc2)c2c(N)ncnc2n1C1(C)CC1` [Example 207, 4-amino-6-ethyl-N-(4-(methoxymethyl)phenyl)-7-(1-methylcyclopropyl)-7H-pyrrolo[2,3-d]pyrimidine-5-carboxamide] the figure was 72%; with `COCc1ccc(NC(=O)c2c(C#CC(C)(C)O)n(C3(C)CC3)c3ncnc(N)c23)cc1` [Example 174, 4-amino-6-(3-hydroxy-3-methylbut-1-yn-1-yl)-N-(4-(methoxymethyl)phenyl)-7-(1-methylcyclopropyl)-7H-pyrrolo[2,3-d]pyrimidine-5-carboxamide], 72%; with `COCc1ccc(NC(=O)c2c(C#CCN3CCOCC3)n(C3(C)CC3)c3ncnc(N)c23)cc1F` [Example 206, 4-amino-N-(3-fluoro-4-(methoxymethyl)phenyl)-7-(1-methylcyclopropyl)-6-(3-morpholinoprop-1-yn-1-yl)-7H-pyrrolo[2,3-d]pyrimidine-5-carboxamide], 77%.
With `COCc1ccc(NC(=O)c2c(C#CC3(O)CCOC3)n(C3(C)CC3)c3ncnc(N)c23)cc1` (centres unmarked) [Example 177, 4-amino-6-((3-hydroxytetrahydrofuran-3-yl)ethynyl)-N-(4-(methoxymethyl)phenyl)-7-(1-methylcyclopropyl)-7H-pyrrolo[2,3-d]pyrimidine-5-carboxamide] the figure was 72%; with `COCc1ccc(NC(=O)c2c(C#Cc3ccc(N)nc3)n(C3(C)CC3)c3ncnc(N)c23)cc1` [Example 155, 4-amino-6-((6-aminopyridin-3-yl)ethynyl)-N-(4-(methoxymethyl)phenyl)-7-(1-methylcyclopropyl)-7H-pyrrolo[2,3-d]pyrimidine-5-carboxamide], 64%; with `COCc1ccc(NC(=O)c2c(C#CC(O)C3CC3)n(C3(C)CC3)c3ncnc(N)c23)cc1` (centres unmarked) [Example 104, 4-amino-6-(3-cyclopropyl-3-hydroxyprop-1-yn-1-yl)-N-(4-(methoxymethyl)phenyl)-7-(1-methylcyclopropyl)-7H-pyrrolo[2,3-d]pyrimidine-5-carboxamide], 52%.
For `COCc1ccc(NC(=O)c2cn(C3(C)CC3)c3ncnc(N)c23)cc1F` [Example 48, 4-amino-N-(3-fluoro-4-(methoxymethyl)phenyl)-7-(1-methylcyclopropyl)-7H-pyrrolo[2,3-d]pyrimidine-5-carboxamide], the “Remaining (%)” value is recorded as 58%.
With `COCc1ccc(NC(=O)c2c(OCC(C)OC)n(C3(C)CC3)c3ncnc(N)c23)cc1` (centres unmarked) [Example 100, 4-amino-N-(4(methoxymethyl)phenyl)-6-(2-methoxypropoxy)-7-(1-methylcyclopropyl)-7H-pyrrolo[2,3-d]pyrimidine-5-carboxamide] the figure was 76%; with `CCn1cc(C#Cc2c(C(=O)Nc3ccc(COC)cc3)c3c(N)ncnc3n2C2(C)CC2)cn1` [Example 118, 4-amino-6-((1-ethyl-1H-pyrazol-4-yl)ethynyl)-N-(4-(methoxymethyl)phenyl)-7-(1-methylcyclopropyl)-7H-pyrrolo[2,3-d]pyrimidine-5-carboxamide], 73%; with `COCc1ccc(NC(=O)c2c(C#CCC(C)O)n(C3(C)CC3)c3ncnc(N)c23)cc1` (centres unmarked) [Example 188, 4-amino-6-(4-hydroxypent-1-yn-1-yl)-N-(4-(methoxymethyl)phenyl)-7-(1-methylcyclopropyl)-7H-pyrrolo[2,3-d]pyrimidine-5-carboxamide], 68%.
Turning to `COCc1ccc(NC(=O)c2c(OCCN3CCCC3=O)n(C3(C)CC3)c3ncnc(N)c23)cc1` [Example 136, 4-amino-N-(4-(methoxymethyl)phenyl)-7-(1-methylcyclopropyl)-6-(2-(2-oxopyrrolidin-1-yl)ethoxy)-7H-pyrrolo[2,3-d]pyrimidine-5-carboxamide], the “Remaining (%)” value stood at 78%.
Turning to `COCc1ccc(NC(=O)c2c(C#Cc3cnc4ccoc4c3)n(C3(C)CC3)c3ncnc(N)c23)cc1` [Example 159, 4-amino-6-(furo[3,2-b]pyridin-6-ylethynyl)-N-(4-(methoxymethyl)phenyl)-7-(1-methylcyclopropyl)-7H-pyrrolo[2,3-d]pyrimidine-5-carboxamide], the “Remaining (%)” value is on record as 78%.
In the case of `COCc1ccc(NC(=O)c2c(C#Cc3cn(C)nc3C)n(C3(C)CC3)c3ncnc(N)c23)cc1` [Example 181, 4-amino-6-((1,3-dimethyl-1H-pyrazol-4-yl)ethynyl)-N-(4-(methoxymethyl)phenyl)-7-(1-methylcyclopropyl)-7H-pyrrolo[2,3-d]pyrimidine-5-carboxamide], the “Remaining (%)” value came out at 62%.
With `COCc1ccc(NC(=O)c2c(OCC3CCCCO3)n(C3(C)CC3)c3ncnc(N)c23)cc1` (centres unmarked) [Example 102, 4-amino-N-(4-(methoxymethyl)phenyl)-7-(1-methylcyclopropyl)-6-((tetrahydro-2H-pyran-2-yl)methoxy)-7H-pyrrolo[2,3-d]pyrimidine-5-carboxamide] the figure was 60%.
Consider `COCc1ccc(NC(=O)c2c(C#Cc3cccc(NCc4ccncc4)c3)n(C3(C)CC3)c3ncnc(N)c23)cc1` [Example 122, 4-amino-N-(4-(methoxymethyl)phenyl)-7-(1-methylcyclopropyl)-6-((3-((pyridin-4-ylmethyl)amino)phenyl)ethynyl)-7H-pyrrolo[2,3-d]pyrimidine-5-carboxamide], for which the “Remaining (%)” value was 62%.
With `COCc1ccc(NC(=O)c2c(C#Cc3cncc(C#N)c3)n(C3(C)CC3)c3ncnc(N)c23)cc1` [Example 195, 4-amino-6-((5-cyanopyridin-3-yl)ethynyl)-N-(4-(methoxymethyl)phenyl)-7-(1-methylcyclopropyl)-7H-pyrrolo[2,3-d]pyrimidine-5-carboxamide] the figure was 70%; with `COCc1ccc(NC(=O)c2c(C#Cc3ccc(OC)nc3)n(C3(C)CC3)c3ncnc(N)c23)cc1` [Example 192, 4-amino-N-(4-(methoxymethyl)phenyl)-6-((6-methoxypyridin-3-yl)ethynyl)-7-(1-methylcyclopropyl)-7H-pyrrolo[2,3-d]pyrimidine-5-carboxamide], 79%.
Consider `COCc1ccc(NC(=O)c2c(C#CCCN3CCOCC3)n(C3(C)CC3)c3ncnc(N)c23)cc1` [Example 187, 4-amino-N-(4-(methoxymethyl)phenyl)-7-(1-methylcyclopropyl)-6-(4-morpholinobut-1-yn-1-yl)-7H-pyrrolo[2,3-d]pyrimidine-5-carboxamide], for which the “Remaining (%)” value amounted to 68%.
For `COCc1ccc(NC(=O)c2c(C#CCC3(O)CCOCC3)n(C3(C)CC3)c3ncnc(N)c23)cc1` [Example 143, 4-amino-6-(3-(4-hydroxytetrahydro-2H-pyran-4-yl)prop-1-yn-1-yl)-N-(4-(methoxymethyl)phenyl)-7-(1-methylcyclopropyl)-7H-pyrrolo[2,3-d]pyrimidine-5-carboxamide] the value was 68%.
